What all share (type): functional
Assay [1] concerns Streptococcus pneumoniae. Nature of the assay: Compound was tested for antibacterial activity against Streptococcus pneumoniae 030SJ1 EryRc using standard broth microdilution assay.
Assay [2] deals with Haemophilus influenzae. Nature of the assay: Compound was tested for antibacterial activity against Haemophilus influenzae 351HT3 using standard broth microdilution assay.
For assay [3], the system named is Streptococcus pneumoniae. Nature of the assay: Compound was tested for antibacterial activity against Streptococcus pneumoniae 032UC1 using standard broth microdilution assay. In general terms: Dilution methods test growth across graded concentrations, often in twofold steps.
Assay [4] deals with Streptococcus pyogenes. Nature of the assay: Compound was tested for antibacterial activity against Streptococcus pyogenes 02A1UC1 using standard broth microdilution assay.
The subject of assay [5] is Streptococcus pneumoniae. The assay can be described thus: Compound was tested for antibacterial activity against Streptococcus pneumoniae 030SJ5i EryRi using standard broth microdilution assay.
The test system of assay [6] is Staphylococcus aureus. The assay can be described thus: Compound was tested for antibacterial activity against Staphylococcus aureus 011UC4 using standard broth microdilution assay.
Assay [7] deals with Escherichia coli. Nature of the assay: Compound was tested for antibacterial activity against Escherichia coli 250 UC5 using standard broth microdilution assay.

Converted amounts (≈) assume the structure as drawn. A value given as a limit tells only on which side of the number the result lay.

For `CC[C@H]1OC(=O)[C@H](C)[C@@H](O[C@H]2C[C@@](C)(OC)[C@@H](O)[C@H](C)O2)[C@H](C)[C@@H](O[C@@H]2O[C@H](C)C[C@H](N(C)C)[C@H]2O)[C@](C)(OC)C[C@@H](C)C2=N[C@H](C)[C@@H](O2)[C@]1(C)O`, the MIC is 40 µg/mL (≈ 53.7 µM) in assay [1]; 10 µg/mL (≈ 13.4 µM) in assay [2]; 40 µg/mL (≈ 53.7 µM) in assay [3]; 40 µg/mL (≈ 53.7 µM) in assay [4]; 40 µg/mL (≈ 53.7 µM) in assay [5]; 20 µg/mL (≈ 26.8 µM) in assay [6]. The compound also yielded an MIC in assay [7] of 40 µg/mL (≈ 53.7 µM).
As for `CC[C@H]1OC(=O)[C@H](C)[C@@H](O[C@H]2C[C@@](C)(OC)[C@@H](O)[C@H](C)O2)[C@H](C)[C@@H](OC2O[C@H](C)C[C@H](N(C)C)[C@H]2O)[C@](C)(OC)C[C@@H](C)C(=O)N[C@H](C)[C@@H](O)[C@]1(C)O` (some centres not stated), the MIC was 40 µg/mL (≈ 52.4 µM) in assay [1]; 2.5 µg/mL (≈ 3.28 µM) in assay [2]; 1.2 µg/mL (≈ 1.57 µM) in assay [3]; 0.6 µg/mL (≈ 0.786 µM) in assay [4]; 10 µg/mL (≈ 13.1 µM) in assay [5]; 1.2 µg/mL (≈ 1.57 µM) in assay [6]. The compound also registered an MIC in assay [7] of 40 µg/mL (≈ 52.4 µM).
Regarding `CC[C@H]1OC(=O)[C@H](C)[C@@H](O[C@H]2C[C@@](C)(OC)[C@@H](O)[C@H](C)O2)[C@H](C)[C@@H](O[C@@H]2O[C@H](C)C[C@H](N(C)C)[C@H]2O)[C@](C)(OC)C[C@@H](C)CN(C)[C@H](C)[C@@H](O)[C@]1(C)O`, the MIC in assay [1] was greater than 40 µg/mL; in assay [2] it was 2.5 µg/mL (≈ 3.28 µM); in assay [3], 0.15 µg/mL (≈ 0.197 µM); in assay [4], 0.15 µg/mL (≈ 0.197 µM); in assay [5], greater than 40 µg/mL; in assay [6], 1.2 µg/mL (≈ 1.57 µM). This compound also gave an MIC in assay [7] of 20 µg/mL (≈ 26.2 µM).
Regarding `CC[C@H]1OC(=O)[C@H](C)C(=O)[C@H](C)[C@@H](OC2O[C@H](C)C[C@H](N(C)C)[C@H]2O)[C@](C)(OC)C[C@@H](C)C(=O)[C@H](C)[C@H]2N(CCCCn3cnc(-c4cccnc4)c3)C(=O)O[C@]12C` (some centres not stated), the MIC in assay [1] was 0.02 µg/mL (≈ 0.0246 µM); in assay [2], 1.2 µg/mL (≈ 1.48 µM); in assay [3], 0.02 µg/mL (≈ 0.0246 µM); in assay [4] it was 0.02 µg/mL (≈ 0.0246 µM); in assay [5], 0.02 µg/mL (≈ 0.0246 µM); in assay [6] it was 0.04 µg/mL (≈ 0.0493 µM). In assay [7], this compound came in with an MIC of 10 µg/mL (≈ 12.3 µM).
As to `CC[C@H]1OC(=O)[C@H](C)C(=O)[C@H](C)[C@@H](O[C@@H]2O[C@H](C)C[C@H](N(C)C)[C@H]2O)[C@](C)(OC)C[C@@H](C)CN(C)[C@H](C)[C@@H](O)[C@]1(C)O`, the MIC in assay [1], in assay [2], in assay [3], in assay [4], in assay [5] and in assay [6] was 40 µg/mL (≈ 66.4 µM) each time. In addition, in assay [7], the MIC was 40 µg/mL (≈ 66.4 µM).
As to `CC[C@H]1OC(=O)[C@H](C)[C@@H](O[C@H]2C[C@@](C)(OC)[C@@H](O)[C@H](C)O2)[C@H](C)[C@@H](O[C@@H]2O[C@H](C)C[C@H](N(C)C)[C@H]2O)[C@](C)(O)C[C@@H](C)CN(C)[C@H](C)[C@@H](O)[C@]1(C)O` [AZITHROMYCIN], the MIC in assay [1] was determined as 40 µg/mL (≈ 53.4 µM); in assay [2], 1.2 µg/mL (≈ 1.6 µM); in assay [3], 0.15 µg/mL (≈ 0.2 µM); in assay [4], 0.6 µg/mL (≈ 0.801 µM); in assay [5], 40 µg/mL (≈ 53.4 µM); in assay [6] it was 0.3 µg/mL (≈ 0.401 µM). For the same compound, the MIC in assay [7] was 20 µg/mL (≈ 26.7 µM).
